Measurements published in patent US7087762B2, “Long-lasting antimicrobial reaction product of allantoin and formaldehyde containing a low level of free formaldehyde” (ISP Investments Inc., priority 2002, dated 2006).

Legend:
C. Albican ATTC1023 = assay: Activity against yeast and mold, 0.3% test solutions; type: cell-based, Candida albicans; design: key: + Growth; − No Growth
Description: (§1) Activity against yeast and mold:

A. Niger ATCC 9642 = assay: as above; type: cell-based, Aspergillus niger; design: key: + Growth; − No Growth
Description: as §1

BC (B. cepacia) [1] = assay: Preservative challenge test, screening emulsion; type: cell-based, Burkholderia cepacia
Protocol: (§2) A typical cosmetic emulsion was prepared for microbiological challenge testing and predetermined admixtures of a methylol compound and IPBC were added at various use levels. The emulsion thus prepared had the following composition:
To prepare the emulsion, Phases A and B were heated separately to 75°–80° C. Phase A then was added to Phase B with mixing. The mixture then was cooled to 55°–60° C. At this point the desired amount of the preservative admixture was added and the product was cooled to 50° C. while stirring. The citric acid solution then was added to adjust the pH and the mixture was stirred until a temperature of 30° C. was reached.
(§3) The challenge tests were carried out using the following microorganisms: SA, ECOLI, PSA, PC, AN and CAN, in this manner. 50 g aliquots of the test emulsion containing various amounts of the preservative admixture were inoculated with approximately 10^7–10^8 of the challenge organisms. The test samples then were stirred to disperse the challenge inoculum. The samples were incubated and assayed at 48 hours, 7, 14, 21 and 28 days. The assays were performed on 1 g of the test sample by serially diluting 10^1 to 10^6 of the original concentration. The plating medium for bacteria was Letheen agar and for fungi it was low pH Mycophil agar with Tween 20. Each plated sample was incubated for 48 hours at 37° C. for bacteria, 5 days at 25° C. for mold, and 3 days at 25° C. for fungi. After incubation, readings of the number of colonies per milliliter (cfu/ml) were made. At 21 days the test product was reinoculated with half of the original inoculum.

AN (Aspergillus niger) = assay: Preservative challenge test, nonionic emulsion; type: cell-based
Protocol: as §2, §3

[2] = test system: EC (ECOLI, Escherichia coli); assay: Preservative challenge test, nonionic emulsion; type: cell-based
Protocol: as §2, §3

BC (B. cepacia) [3] = assay: Preservative challenge test, nonionic emulsion; type: cell-based, Burkholderia cepacia
Protocol: as §2, §3

SMILES: O=C1C(N(CO)C(=O)NCO)N(CO)C(=O)N1CO (stereo not shown) [Germall II]
- Growth, C. Albican ATTC1023 (C. Albican ATTC1023): −
- Growth, A. Niger ATCC 9642(for 3 Days) (A. Niger ATCC 9642): −
- cfu/ml, 48 hrs (BC (B. cepacia) [1]; 250 ppm): <10 cfu/ml
- cfu/ml, 7 days (BC (B. cepacia) [1]; 250 ppm): <10 cfu/ml
- cfu/ml, 14 days (BC (B. cepacia) [1]; 250 ppm): <10 cfu/ml
- cfu/ml, 21 days (BC (B. cepacia) [1]; 250 ppm): <10 cfu/ml
- cfu/ml, 28 days (BC (B. cepacia) [1]; 250 ppm): <10 cfu/ml
- cfu/ml, 48 hrs (BC (B. cepacia) [1]; 500 ppm): <10 cfu/ml
- cfu/ml, 7 days (BC (B. cepacia) [1]; 500 ppm): <10 cfu/ml
- cfu/ml, 14 days (BC (B. cepacia) [1]; 500 ppm): <10 cfu/ml
- cfu/ml, 21 days (BC (B. cepacia) [1]; 500 ppm): <10 cfu/ml
- cfu/ml, 28 days (BC (B. cepacia) [1]; 500 ppm): <10 cfu/ml
- cfu/ml, 48 hrs (BC (B. cepacia) [1]; 1000 ppm): <10 cfu/ml
- cfu/ml, 7 days (BC (B. cepacia) [1]; 1000 ppm): <10 cfu/ml
- cfu/ml, 14 days (BC (B. cepacia) [1]; 1000 ppm): <10 cfu/ml
- cfu/ml, 21 days (BC (B. cepacia) [1]; 1000 ppm): <10 cfu/ml
- cfu/ml, 28 days (BC (B. cepacia) [1]; 1000 ppm): <10 cfu/ml
- cfu/ml, 48 hrs (BC (B. cepacia) [1]; 2000 ppm): <10 cfu/ml
- cfu/ml, 7 days (BC (B. cepacia) [1]; 2000 ppm): <10 cfu/ml
- cfu/ml, 14 days (BC (B. cepacia) [1]; 2000 ppm): <10 cfu/ml
- cfu/ml, 21 days (BC (B. cepacia) [1]; 2000 ppm): <10 cfu/ml
- cfu/ml, 28 days (BC (B. cepacia) [1]; 2000 ppm): <10 cfu/ml
- cfu/ml, 48 hrs (AN (Aspergillus niger); 2000 ppm): <10 cfu/ml
- cfu/ml, 7 days (AN (Aspergillus niger); 2000 ppm): <10 cfu/ml
- cfu/ml, 14 days (AN (Aspergillus niger); 2000 ppm): <10 cfu/ml
- cfu/ml, 21 days (AN (Aspergillus niger); 2000 ppm): <10 cfu/ml
- cfu/ml, 28 days (AN (Aspergillus niger); 2000 ppm): <10 cfu/ml
- cfu/ml, 48 hrs (AN (Aspergillus niger); 4000 ppm): <10 cfu/ml
- cfu/ml, 7 days (AN (Aspergillus niger); 4000 ppm): <10 cfu/ml
- cfu/ml, 14 days (AN (Aspergillus niger); 4000 ppm): <10 cfu/ml
- cfu/ml, 21 days (AN (Aspergillus niger); 4000 ppm): <10 cfu/ml
- cfu/ml, 28 days (AN (Aspergillus niger); 4000 ppm): <10 cfu/ml
- cfu/ml, 48 hrs ([2]; 2000 ppm): <10 cfu/ml
- cfu/ml, 7 days ([2]; 2000 ppm): <10 cfu/ml
- cfu/ml, 14 days ([2]; 2000 ppm): <10 cfu/ml
- cfu/ml, 21 days ([2]; 2000 ppm): <10 cfu/ml
- cfu/ml, 28 days ([2]; 2000 ppm): <10 cfu/ml
- cfu/ml, 48 hrs ([2]; 4000 ppm): <10 cfu/ml
- cfu/ml, 7 days ([2]; 4000 ppm): <10 cfu/ml
- cfu/ml, 14 days ([2]; 4000 ppm): <10 cfu/ml
- cfu/ml, 21 days ([2]; 4000 ppm): <10 cfu/ml
- cfu/ml, 28 days ([2]; 4000 ppm): <10 cfu/ml
- cfu/ml, 48 hrs (BC (B. cepacia) [3]; 2000 ppm): <10 cfu/ml
- cfu/ml, 7 days (BC (B. cepacia) [3]; 2000 ppm): <10 cfu/ml
- cfu/ml, 14 days (BC (B. cepacia) [3]; 2000 ppm): <10 cfu/ml
- cfu/ml, 21 days (BC (B. cepacia) [3]; 2000 ppm): <10 cfu/ml
- cfu/ml, 28 days (BC (B. cepacia) [3]; 2000 ppm): <10 cfu/ml
- cfu/ml, 48 hrs (BC (B. cepacia) [3]; 4000 ppm): <10 cfu/ml
- cfu/ml, 7 days (BC (B. cepacia) [3]; 4000 ppm): <10 cfu/ml
- cfu/ml, 14 days (BC (B. cepacia) [3]; 4000 ppm): <10 cfu/ml
- cfu/ml, 21 days (BC (B. cepacia) [3]; 4000 ppm): <10 cfu/ml
- cfu/ml, 28 days (BC (B. cepacia) [3]; 4000 ppm): <10 cfu/ml
